Earlier results in article PMC10320121 (Nucleic Acids Research, 2023).

oral bioavailability (F): 47.45%
Structure (SMILES): N#Cc1ccc2[nH]cc(CCCCN3CCN(c4ccc5oc(C(N)=O)cc5c4)CC3)c2c1 [Vilazodone, vilazodone]
